Tests used:
[1] = tested on: swelling produced by injecting carrageenin into the footpad; assay: animal or person; type: in vivo, mice or rats; conditions: for Reduction of Swelling 3 hrs / Reduction of Swelling 5 hrs: dose 2 mg/kg i.p.; for Reduction of Swelling 3 hrs: 3 hours after; for Reduction of Swelling 5 hrs: 5 hours after; for minimal effective dose: Mus musculus, ip, classical drugs, carrageenin swelling screen, read-out: Dose level at which active (antiinflammatory)
Text: The antiinflammatory properties of colchinoids can be evaluated in a classical screening that measures the reduction of swelling produced by injecting (i.p.) carrageenin into the footpad of mice or rats and drug treatment. The drugs can be given orally or intraperitoneally.
Drug given in carrageenine or thyrode solution by i.p.

[2] = Toxicity measured in the P388 screen (weight loss in mice); type: in vivo; conditions: for Toxicity: dose which caused average weight loss in mice of 3 g or more: P388 screen
Text: ^1 Measured in the P388 screen and defined as dose which caused
average weight loss in mice of 3 g or more.

tubulin protein = type: binding; conditions: in vitro

Row | SMILES | Reduction of Swelling 3 hrs [1] | Reduction of Swelling 5 hrs [1] | Toxicity: dose which caused average weight loss in mice of 3 g or more [2] | Toxicity in comparison to colchicine (in words) ([2]; experimental animals) | Binding to tubulin protein in comparison to colchicine (in words) (tubulin protein) | minimal effective dose [1]
1 | COc1c(O)c(O)cc2c1-c1ccc(OC)c(=O)cc1[C@@H](NC(C)=O)CC2 [2,3-Didemethylcolchicine] | 70 | 60 | 54 | much less toxic | bind less | –
2 | COc1c2c(cc3c1-c1ccc(OC)c(=O)cc1[C@@H](NC(C)=O)CC3)OCO2 [Cornigerine, 2,3-(Methylenedioxy)-2,3-didemethoxycolchicine] | 44 | 47 | 39 | – | – | –
3 | COc1ccc2c(c1)c(CC(=O)O)c(C)n2C(=O)c1ccc(Cl)cc1 [indomethacine, reference compound] | – | – | – | – | – | ≥ 100 mg/kg
4 | CCCCC1C(=O)N(c2ccccc2)N(c2ccccc2)C1=O [phenybutazone, reference compound] | – | – | – | – | – | ≥ 100 mg/kg
5 | COc1cc2c(c(OC)c1OC)-c1ccc(OC)c(=O)cc1[C@@H](NC(C)=O)CC2 [Colchicine] | 44 | 45 | 2.5 | – | – | –
